# ± gives the expanded uncertainty stated by the source.
# Details: Liquid, Vibrating tube method
smiles,measurement,setting,value
CCCC(=O)OCC(COC(=O)CCC)(COC(=O)CCC)COC(=O)CCC [pentaerythritol tetrabutyrate],mass density,"343.14 K, 27001 kPa",1027.8 ± 1.2 kg/m3
same,mass density,"343.14 K, 27378 kPa",1028.1 ± 1.2 kg/m3
same,mass density,"343.14 K, 27722 kPa",1028.3 ± 1.2 kg/m3
same,mass density,"343.14 K, 28167 kPa",1028.7 ± 1.2 kg/m3
same,mass density,"343.14 K, 28200 kPa",1028.7 ± 1.2 kg/m3
same,mass density,"343.14 K, 28241 kPa",1028.7 ± 1.2 kg/m3
same,mass density,"343.14 K, 29595 kPa",1029.4 ± 1.2 kg/m3
same,mass density,"343.14 K, 29634 kPa",1029.5 ± 1.2 kg/m3
same,mass density,"343.14 K, 29666 kPa",1029.7 ± 1.2 kg/m3
same,mass density,"343.14 K, 29705 kPa",1029.5 ± 1.2 kg/m3
same,mass density,"343.14 K, 30226 kPa",1030 ± 1.2 kg/m3
same,mass density,"343.14 K, 30268 kPa",1029.9 ± 1.2 kg/m3
same,mass density,"343.14 K, 30303 kPa",1029.9 ± 1.2 kg/m3
same,mass density,"343.14 K, 30331 kPa",1030 ± 1.2 kg/m3
same,mass density,"343.14 K, 30366 kPa",1030.1 ± 1.2 kg/m3
same,mass density,"343.14 K, 30394 kPa",1030.1 ± 1.2 kg/m3
same,mass density,"343.14 K, 30429 kPa",1029.9 ± 1.2 kg/m3
same,mass density,"343.14 K, 30464 kPa",1030.1 ± 1.2 kg/m3
same,mass density,"343.14 K, 30785 kPa",1030.4 ± 1.2 kg/m3
same,mass density,"343.14 K, 30814 kPa",1030.4 ± 1.2 kg/m3
same,mass density,"343.14 K, 30849 kPa",1030.4 ± 1.2 kg/m3
same,mass density,"343.14 K, 30886 kPa",1030.3 ± 1.2 kg/m3
same,mass density,"343.14 K, 30916 kPa",1030.4 ± 1.2 kg/m3
same,mass density,"343.14 K, 32186 kPa",1031.3 ± 1.2 kg/m3
same,mass density,"343.14 K, 32224 kPa",1031.2 ± 1.2 kg/m3
same,mass density,"343.14 K, 32886 kPa",1031.6 ± 1.2 kg/m3
same,mass density,"343.14 K, 32998 kPa",1031.7 ± 1.2 kg/m3
same,mass density,"343.14 K, 33543 kPa",1032 ± 1.3 kg/m3
same,mass density,"343.14 K, 33577 kPa",1032.2 ± 1.3 kg/m3
same,mass density,"343.14 K, 33620 kPa",1032.2 ± 1.3 kg/m3
same,mass density,"343.14 K, 33664 kPa",1032.2 ± 1.3 kg/m3
same,mass density,"343.14 K, 33699 kPa",1032.2 ± 1.3 kg/m3
same,mass density,"343.14 K, 33741 kPa",1032.2 ± 1.3 kg/m3
same,mass density,"343.14 K, 33784 kPa",1032.2 ± 1.3 kg/m3
same,mass density,"343.14 K, 33820 kPa",1032.2 ± 1.3 kg/m3
same,mass density,"343.14 K, 33863 kPa",1032.3 ± 1.3 kg/m3
same,mass density,"343.14 K, 33907 kPa",1032.4 ± 1.3 kg/m3
same,mass density,"343.15 K, 454.1 kPa",1008.4 ± 1.2 kg/m3
same,mass density,"343.15 K, 473 kPa",1008.4 ± 1.2 kg/m3
same,mass density,"343.15 K, 494.2 kPa",1008.5 ± 1.2 kg/m3
same,mass density,"343.15 K, 517.1 kPa",1008.3 ± 1.2 kg/m3
same,mass density,"343.15 K, 5946.5 kPa",1012.7 ± 1.2 kg/m3
same,mass density,"343.15 K, 6013.6 kPa",1012.8 ± 1.2 kg/m3
same,mass density,"343.15 K, 6051.1 kPa",1012.8 ± 1.2 kg/m3
same,mass density,"343.15 K, 6081.9 kPa",1012.8 ± 1.2 kg/m3
same,mass density,"343.15 K, 7040 kPa",1013.6 ± 1.2 kg/m3
same,mass density,"343.15 K, 7078.5 kPa",1013.6 ± 1.2 kg/m3
same,mass density,"343.15 K, 7108.1 kPa",1013.7 ± 1.2 kg/m3
same,mass density,"343.15 K, 7140.9 kPa",1013.7 ± 1.2 kg/m3
same,mass density,"343.15 K, 8048.2 kPa",1014.3 ± 1.2 kg/m3
same,mass density,"343.15 K, 8412.3 kPa",1014.7 ± 1.2 kg/m3
same,mass density,"343.15 K, 8447.3 kPa",1014.8 ± 1.2 kg/m3
same,mass density,"343.15 K, 8482.2 kPa",1014.7 ± 1.2 kg/m3
same,mass density,"343.15 K, 8511.5 kPa",1014.7 ± 1.2 kg/m3
same,mass density,"343.15 K, 8547 kPa",1014.6 ± 1.2 kg/m3
same,mass density,"343.15 K, 8583.2 kPa",1014.8 ± 1.2 kg/m3
same,mass density,"343.15 K, 8618.9 kPa",1014.8 ± 1.2 kg/m3
same,mass density,"343.15 K, 8655.1 kPa",1014.9 ± 1.2 kg/m3
same,mass density,"343.15 K, 8686 kPa",1014.8 ± 1.2 kg/m3
same,mass density,"343.15 K, 8982.4 kPa",1015 ± 1.2 kg/m3
same,mass density,"343.15 K, 9021.7 kPa",1015.1 ± 1.2 kg/m3
same,mass density,"343.15 K, 9062.3 kPa",1015.2 ± 1.2 kg/m3
same,mass density,"343.15 K, 9096.7 kPa",1015.2 ± 1.2 kg/m3
same,mass density,"343.15 K, 9137.8 kPa",1015.1 ± 1.2 kg/m3
same,mass density,"343.15 K, 9179.2 kPa",1015.3 ± 1.2 kg/m3
same,mass density,"343.15 K, 9602.2 kPa",1015.6 ± 1.2 kg/m3
same,mass density,"343.15 K, 9638.9 kPa",1015.4 ± 1.2 kg/m3
same,mass density,"343.15 K, 9676.1 kPa",1015.7 ± 1.2 kg/m3
same,mass density,"343.15 K, 9713.7 kPa",1015.6 ± 1.2 kg/m3
same,mass density,"343.15 K, 9822.7 kPa",1015.8 ± 1.2 kg/m3
same,mass density,"343.15 K, 9861.5 kPa",1015.8 ± 1.2 kg/m3
same,mass density,"343.15 K, 9900.4 kPa",1015.9 ± 1.2 kg/m3
same,mass density,"343.15 K, 9939.7 kPa",1015.8 ± 1.2 kg/m3
same,mass density,"343.15 K, 9973.1 kPa",1015.9 ± 1.2 kg/m3
same,mass density,"343.15 K, 10013 kPa",1016 ± 1.2 kg/m3
same,mass density,"343.15 K, 10053 kPa",1015.8 ± 1.2 kg/m3
same,mass density,"343.15 K, 10095 kPa",1015.9 ± 1.2 kg/m3
same,mass density,"343.15 K, 10129 kPa",1015.9 ± 1.2 kg/m3
same,mass density,"343.15 K, 10171 kPa",1016 ± 1.2 kg/m3
same,mass density,"343.15 K, 10545 kPa",1016.2 ± 1.2 kg/m3
same,mass density,"343.15 K, 10590 kPa",1016.2 ± 1.2 kg/m3
same,mass density,"343.15 K, 10635 kPa",1016.3 ± 1.2 kg/m3
same,mass density,"343.15 K, 10674 kPa",1016.5 ± 1.2 kg/m3
same,mass density,"343.15 K, 10720 kPa",1016.3 ± 1.2 kg/m3
same,mass density,"343.15 K, 10767 kPa",1016.4 ± 1.2 kg/m3
same,mass density,"343.15 K, 10943 kPa",1016.5 ± 1.2 kg/m3
same,mass density,"343.15 K, 10980 kPa",1016.7 ± 1.2 kg/m3
same,mass density,"343.15 K, 11011 kPa",1016.6 ± 1.2 kg/m3
same,mass density,"343.15 K, 11049 kPa",1016.6 ± 1.2 kg/m3
same,mass density,"343.15 K, 11087 kPa",1016.7 ± 1.2 kg/m3
same,mass density,"343.15 K, 11125 kPa",1016.7 ± 1.2 kg/m3
same,mass density,"343.15 K, 11163 kPa",1016.7 ± 1.2 kg/m3
same,mass density,"343.15 K, 11196 kPa",1016.8 ± 1.2 kg/m3
same,mass density,"343.15 K, 11235 kPa",1016.8 ± 1.2 kg/m3
same,mass density,"343.15 K, 11314 kPa",1016.8 ± 1.2 kg/m3
same,mass density,"343.15 K, 11354 kPa",1016.8 ± 1.2 kg/m3
same,mass density,"343.15 K, 11388 kPa",1017 ± 1.2 kg/m3
same,mass density,"343.15 K, 11428 kPa",1016.8 ± 1.2 kg/m3
same,mass density,"343.15 K, 11468 kPa",1017 ± 1.2 kg/m3
same,mass density,"343.15 K, 11510 kPa",1017 ± 1.2 kg/m3
same,mass density,"343.15 K, 11544 kPa",1017 ± 1.2 kg/m3
same,mass density,"343.15 K, 11586 kPa",1017 ± 1.2 kg/m3
same,mass density,"343.15 K, 11628 kPa",1017.2 ± 1.2 kg/m3
same,mass density,"343.15 K, 11670 kPa",1017.1 ± 1.2 kg/m3
same,mass density,"343.15 K, 11714 kPa",1017.1 ± 1.2 kg/m3
same,mass density,"343.15 K, 11749 kPa",1017.1 ± 1.2 kg/m3
same,mass density,"343.15 K, 11792 kPa",1017.1 ± 1.2 kg/m3
same,mass density,"343.15 K, 11837 kPa",1017.3 ± 1.2 kg/m3
same,mass density,"343.15 K, 12365 kPa",1017.5 ± 1.2 kg/m3
same,mass density,"343.15 K, 12414 kPa",1017.6 ± 1.2 kg/m3
same,mass density,"343.15 K, 12458 kPa",1017.7 ± 1.2 kg/m3
same,mass density,"343.15 K, 12498 kPa",1017.7 ± 1.2 kg/m3
same,mass density,"343.15 K, 12547 kPa",1017.7 ± 1.2 kg/m3
same,mass density,"343.15 K, 12597 kPa",1017.8 ± 1.2 kg/m3
same,mass density,"343.15 K, 12647 kPa",1017.8 ± 1.2 kg/m3
same,mass density,"343.15 K, 12689 kPa",1017.9 ± 1.2 kg/m3
same,mass density,"343.15 K, 12739 kPa",1017.8 ± 1.2 kg/m3
same,mass density,"343.15 K, 12791 kPa",1018 ± 1.2 kg/m3
same,mass density,"343.15 K, 12843 kPa",1017.9 ± 1.2 kg/m3
same,mass density,"343.15 K, 12895 kPa",1018 ± 1.2 kg/m3
same,mass density,"343.15 K, 12939 kPa",1018 ± 1.2 kg/m3
same,mass density,"343.15 K, 12991 kPa",1018.1 ± 1.2 kg/m3
same,mass density,"343.15 K, 13044 kPa",1018 ± 1.2 kg/m3
same,mass density,"343.15 K, 13098 kPa",1018.2 ± 1.2 kg/m3
same,mass density,"343.15 K, 13151 kPa",1018.2 ± 1.2 kg/m3
same,mass density,"343.15 K, 13198 kPa",1018.2 ± 1.2 kg/m3
same,mass density,"343.15 K, 13252 kPa",1018.1 ± 1.2 kg/m3
same,mass density,"343.15 K, 13307 kPa",1018.2 ± 1.2 kg/m3
same,mass density,"343.15 K, 13364 kPa",1018.2 ± 1.2 kg/m3
same,mass density,"343.15 K, 13420 kPa",1018.4 ± 1.2 kg/m3
same,mass density,"343.15 K, 13468 kPa",1018.5 ± 1.2 kg/m3
same,mass density,"343.15 K, 13526 kPa",1018.4 ± 1.2 kg/m3
same,mass density,"343.15 K, 13584 kPa",1018.5 ± 1.2 kg/m3
same,mass density,"343.15 K, 13644 kPa",1018.5 ± 1.2 kg/m3
same,mass density,"343.15 K, 13698 kPa",1018.7 ± 1.2 kg/m3
same,mass density,"343.15 K, 13772 kPa",1018.6 ± 1.2 kg/m3
same,mass density,"343.15 K, 13822 kPa",1018.7 ± 1.2 kg/m3
same,mass density,"343.15 K, 13864 kPa",1018.6 ± 1.2 kg/m3
same,mass density,"343.15 K, 13901 kPa",1018.7 ± 1.2 kg/m3
same,mass density,"343.15 K, 13931 kPa",1018.8 ± 1.2 kg/m3
same,mass density,"343.15 K, 13968 kPa",1018.7 ± 1.2 kg/m3
same,mass density,"343.15 K, 14005 kPa",1018.7 ± 1.2 kg/m3
same,mass density,"343.15 K, 14043 kPa",1018.9 ± 1.2 kg/m3
same,mass density,"343.15 K, 14079 kPa",1018.8 ± 1.2 kg/m3
same,mass density,"343.15 K, 14110 kPa",1018.9 ± 1.2 kg/m3
same,mass density,"343.15 K, 14147 kPa",1018.9 ± 1.2 kg/m3

# — the NIST ThermoML archive (doi:10.1021/je060271a)
